Consider four compounds from US20010008770A1, “MICRO-ORGANISM WHICH CAN DESULPHURISE BENZOTHIOPHENES” (priority 1996, published 2001).

Each structure is given as a SMILES string. “Also recorded” adds a separate entry of the source.

Series [1] has as its system Rhodococcus sp. strain IGTS8. To be noted: background statement; cited from earlier work.
For series [2], the system named is Rhodococcus sp. strain 213E. The series can be described thus: Growth studies of strain 213E in mineral salts medium with a sole sulphur source (biomass OD600, Gibbs phenol assay, GC-MS of metabolites). To be noted: for Biomass at end log phase / Mean Generation time: strain 213E in FruRM.
Description: (§1) The final pH was 7.2 without titration. In some experiments another sugar replaced glucose as the carbon-source.
(§2) For cultures of strain IGTS8, DST (200 μM, added from a stock solution, 40 mM in acetone) was included.
(§3) Growth studies SRM (50 ml in a 100 ml Ehrlenmyer flask) was inoculated with a loopful of cells from a plate and incubated in an orbital shaker (250 rpm, 30° C.). At intervals as appropriate, an 3 ml sample was removed aseptically for measurement of biomass (as optical density at 600 mm, O.D.600) and for phenol production using the Gibbs Assay. The Gibbs Assay was carried out as follows: 1.5 ml of the sample was aliquoted into a Eppendorf tube, centrifuged (12000 rpm, 5 min) to remove the cells and frozen (−20° C.) until the end of the experiment. The samples were then thawed out and 1.0 ml of the supernatant was transferred to a 1 ml disposable spectrophotometer cuvette. 10 μl Gibbs reagent (10 mM in acetone) was then added to each cuvette. A blank solution (SRM +10 μg Gibbs reagent) was also prepared. The set was incubated overnight at 30° C., for full colour development, and the absorbance at 610 nm was measured.
(§4) Cells were removed by centrifugation at 2800×g (3000 rpm) for 30 mins and the supernatant was titrated to pH 1 with 50% HCl and extracted three times with equal volumes of ethyl acetate. The ethyl acetate extracts ware pooled and dried by stirring for 1 h with anhydrous MgSO4 (100 g/l). The ethyl acetate was removed by rotory evaporation and the solids re-dissolved in 3.0 ml ethyl acetate.
(§5) The GC was fitted with a Hewlett Packard capillary column HP-5MS, of length 30 m. The carrier gas was helium. Run conditions were as follows: Start temperature 40° C. held for 2 min, followed by 10° C./min ramp rate to final temperature 240° C. Total run time, 24 min. The mass scan range was 40 to 550 amu.
(§6) The flasks were incubated in an orbital shaker (120 rpm, 30° C.). At intervals 3 ml was withdrawn from each culture under sterile conditions for measurement of biomass and phenol concentration, as described in methods. The cells were also Gram stained and examined under the microscope.
The test system of a further series is strain N1-36. To be noted: Wang and Krawiec, 1996a; cited from earlier work.
The subject of the next series is strain ECRD-1. To be noted: Lee, Senius and Grossman, 1996; cited from earlier work.
The test system of series [3] is Rhodococcus sp. strain IGTS8. Nature of the series: Growth studies of strain IGTS8 in mineral salts medium with a sole sulphur source (biomass OD600, Gibbs phenol assay, GC-MS of metabolites). To be noted: for mean generation time (MGT): strain IGTS8, as stated in the text (FruRM).
Description: as §1, §2, §3, §4, §5, §6
Series [4] has as its system Rhodococcus sp. strain 213F. The series can be described thus: Growth studies of strain 213F in mineral salts medium with a sole sulphur source (biomass OD600, Gibbs phenol assay, GC-MS of metabolites). To be noted: for Biomass at end log phase / Mean Generation time: strain 213F in FruRM; for Biomass at end log phase / Mean Generation time / mean generation time (MGT): sulphur source 200 μM; for mean generation time (MGT): strain 213F, (FruRM).
Description: as §1, §3
The flasks were incubated in an orbital shaker (120 rpm, 30° C.). At intervals 3 ml was withdrawn from each culture under sterile conditions for measurement of biomass and phenol concentration, as described in methods.

[5] abbreviates: strain IGTS8 in SRM, sulphur source 200 μM.

Turning to `c1ccc2sccc2c1` [BTH, benzothiophene], the “desulphurisation of compound by IGTS8” value in series [1] was “not”. Also, the “desulphurisation of compound by strain 213E” value in series [2] was “efficiently desulphurise”. For the same compound, in series [2] (concentration range <200 μM (growth curves 50-200 μM)), the “toxicity to strain 213E (effect on MGT)” value was “not toxic”. In series [2] (sulphur source 50 μM), the “Biomass at end log phase” value came to 2.3 OD600 and the “Mean Generation time” value is 8.0 h. Also, in series [2] (sulphur source 100 μM), the “Biomass at end log phase” value came to 3.0 OD600 and the “Mean Generation time” value was found to be 8.6 h. In series [2] (sulphur source 200 μM), the “Biomass at end log phase” value stood at 4.2 OD600 and the “Mean Generation time” value came out at 9.0 h. Also, in the series on strain N1-36, the “desulphurisation activity of strain N1-36” value is “negligible”. For the same compound, in the series on strain ECRD-1, the “desulphurisation activity of strain ECRD-1” value is recorded as “negligible”. For the same compound, in series [3], the “desulphurisation of compound by strain IGTS8” value is recorded as “unable to desulphurise; also recorded: does not desulplurise”. In series [3] (strain IGTS8 in SRM, over a period of 100 h), the “growth with compound as sole sulphur source” value is on record as “no significant growth”. In addition, in series [4], the “desulphurisation of compound by strain 213F” value is listed as “efficiently desulphurise; also recorded: able to desulphurise; also recorded: appears to desulphurise”, the “Biomass at end log phase” value is on record as 6.0 OD600, the “Mean Generation time” value was 8.0 h and the “mean generation time (MGT)” value is “around 8 h”.

For `c1ccc2c(c1)sc1ccccc12` [DBT, dibenzothiophene], the “desulphurisation of compound by IGTS8” value in series [1] is “desulphurises”. Further, the “desulphurisation of compound by strain 213E” value in series [2] is reported as “unable to desulphurise; also recorded: does not desulphurise”. In addition, the “growth with compound as sole sulphur source” value in series [2] (strain 213E, compound substituted for BTH, FruRM, over a period of 100 h) was “no significant growth”. In series [3], the “desulphurisation of compound by strain IGTS8” value is listed as “desulphurised”. Besides, the “mean generation time (MGT)” value in series [3] (sulphur source 200 μM) is recorded as “around 8 h”. For the same compound, the “Mean Generation time” value in series [3] (setting [5]) came out at 7.0 h. The “Biomass at end log phase” value in series [3] (strain IGTS8 in SRM, sulphur source 200 μM, 1 cm pathlength) was determined as 6.0 OD600. Moreover, in series [4], the “desulphurisation of compound by strain 213F” value was “able to desulphurise; also recorded: appears to desulphurise”, the “Biomass at end log phase” value is on record as 5.4 OD600, the “Mean Generation time” value was 12.4 h and the “mean generation time (MGT)” value is given as 12 h.

Take `O=S(=O)([O-])[O-].[Na+].[Na+]` [sulphate, Sodium sulphate]: the “Mean Generation time” value in series [2] (sulphur source 200 μM) turned out to be 4.4 h; in series [3] (setting [5]), 3.2 h; in series [4] it was 3.6 h. For the same compound, the “mean generation time (MGT)” value in series [2] (strain 213E, sulphur source 200 μM) is reported as “around 4 h”; in series [3] (sulphur source 200 μM), “around 4 h”; in series [4], “around 4 h”.

With `c1ccsc1` [thiophene], the “desulphurisation of compound by IGTS8” value in series [1] is “not”.
